Data as given in patent US20260216348A1, “IRAK DEGRADATION AGENT AND USE THEREOF” (Increland, priority 2023, published 2026).
pIC50: −log10 of the molar value.

Columns and labels:
Type in all cases: cell-based
[1] = tested on: R848-induced IL-6 secretion in human peripheral blood mononuclear cells (PBMCs); experiment: Inhibition of R848-induced IL-6 secretion in human PBMCs (IL-6 ELISA); conditions: PBMC, R848 2.5 μg/mL, 20 h pre-incubation, 24 h stimulation
Experimental: This experiment was carried out in RPMI 1640 medium containing 10% FBS and 1% penicillin/streptomycin, with each of the compounds at an initial test concentration of 1 μM. The compound was dissolved in DMSO to prepare a stock solution, which was serially diluted into a series of working solutions with a 4-fold concentration gradient using the culture medium and then added to a 96-well plate at 10 μL per well. PBMCs (Batch No.: P122101102C; Milecell Biotechnology Inc.) were counted and diluted to a cell concentration of 1.25×10^6 cells/mL, and then added to the aforementioned compound-containing 96-well plate at 160 μL per well. The system was mixed well and incubated in a 5% CO2 incubator at 37° C. for 20 h. Then 10 μL of R848 (final concentration: 2.5 μg/mL) was added, and the culture was continued for 24 h in a 5% CO2 incubator at 37° C. After incubation, the 96-well plate was centrifuged at 2000 rpm for 4 min. The supernatant was collected and diluted 120-fold, then detected using an IL-6 ELISA kit. The OD450 values were read, and converted to IL-6 concentrations based on a standard curve.

[2] = target: T1, IRAK4 (Homo sapiens, UniProt Q9NWZ3); experiment: IRAK4 protein degradation in THP1 cells (Western blot); conditions: THP-1 cells, 24 h
T1 construct: Effect of the Compounds on IRAK4 Protein Degradation in THP1 Cells; endogenous in cells; host or cells: THP-1 cells
T1 sequence (Q9NWZ3 1-460): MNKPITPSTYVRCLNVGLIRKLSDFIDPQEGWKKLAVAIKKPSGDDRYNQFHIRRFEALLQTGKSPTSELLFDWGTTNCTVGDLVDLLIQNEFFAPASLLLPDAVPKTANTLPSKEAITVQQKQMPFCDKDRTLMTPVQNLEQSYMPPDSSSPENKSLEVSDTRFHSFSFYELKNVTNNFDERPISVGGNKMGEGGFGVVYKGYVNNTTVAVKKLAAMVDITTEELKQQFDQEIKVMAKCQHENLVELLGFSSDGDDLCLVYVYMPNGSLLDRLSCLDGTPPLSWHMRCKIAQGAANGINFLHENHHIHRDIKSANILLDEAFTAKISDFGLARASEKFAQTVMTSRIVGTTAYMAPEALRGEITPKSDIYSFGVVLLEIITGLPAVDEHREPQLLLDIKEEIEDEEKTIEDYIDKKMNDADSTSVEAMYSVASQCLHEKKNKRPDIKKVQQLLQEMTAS
Experimental: THP-1 cells were seeded into a 96-well cell culture plate, with 2×10^5 cells and 90 μL of culture medium per well. The cell culture plate was cultured in an incubator with 5% CO2 at 37° C. overnight. The compound was dissolved in DMSO to prepare a stock solution, which was serially diluted into a series of working solutions with a 5-fold concentration gradient using the culture medium and then added to the aforementioned 96-well plate at 10 μL per well. The cell culture plate was further incubated for 24 h in a 5% CO2 incubator at 37° C. After incubation, the 96-well plate was centrifuged and the supernatant was discarded, followed by adding 40 μL of cell lysis buffer containing […]/phosphatase inhibitors to each well for sufficient lysis on an ice bath. Protein quantification was performed using the BCA protein quantification kit, followed by the preparation of Western blot samples. […] After electrophoresis, protein transfer was performed using a PVDF membrane under ice bath conditions for 1 h. After the transfer was completed, the PVDF membrane was blocked with gentle shaking in 5% skim milk at room temperature for 1 h. After blocking, the PVDF membrane was incubated with the primary antibody overnight with gentle shaking at 4° C. The PVDF membrane was washed 3 times with TBST, then the secondary antibody was added and incubated for 1 h with gentle shaking at room temperature, followed by washing of the PVDF membrane with TBST for 3 times. After the washes were completed, the chemiluminescent substrate was added; the PVDF membrane was scanned using a Clinx imager, semi-quantitative analysis was performed with ImageJ software, and the DC50 was calculated using GraphPad Prism 8.0.

[3] = tested on: LPS/IL-1β-induced IL-6 secretion in human peripheral blood mononuclear cells (PBMCs); experiment: Inhibition of LPS/IL-1β-induced IL-6 secretion in human PBMCs (IL-6 ELISA); conditions: PBMC, LPS 10 ng/mL + IL-1β 20 ng/mL, 24 h pre-incubation, 20 h stimulation
Summary of the method: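 IC50 values come from fitted curves of IL-6 levels, determined by ELISA (OD450, standard curve) in supernatants diluted 200-fold. Human PBMCs received 5-fold serial compound dilutions (top 1 μM) for 24 h before a 20 h challenge with final 10 ng/mL LPS and 20 ng/mL IL-1β, 37 °C, 5% CO2.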

| DC50 [2] | Compound | pIC50 [1] | pIC50 [3] |
| --- | --- | --- | --- |
| 0.95 nM | CN(C)c1cc2nn([C@H]3CC[C@H](CN4C[C@@H](F)[C@@H](n5cc6ccc(N7CCC(=O)NC7=O)cc6n5)C4)CC3)cc2cc1NC(=O)c1cnn2cccnc12 [TM-202] | 8.44 |  |
|  | CN(C)c1cc2nn([C@H]3CC[C@H](CN4C[C@@H](F)[C@H](n5cc6c(F)cc(C7CCC(=O)NC7=O)cc6n5)C4)CC3)cc2cc1NC(=O)c1cnn2cccnc12 (some centres unmarked) [TM-237] | 7.60 | 7.78 |
| 3.77 nM | CN(C)c1cc2nn(C3CCC(CN4C[C@@H](F)[C@H](n5cc6cc(N7CCC(=O)NC7=O)ccc6n5)C4)CC3)cc2cc1NC(=O)c1cnn2cccnc12 (some centres unmarked) [TM-208] | 7.97 |  |
|  | CN(C)c1cc2nn([C@H]3CC[C@H](CN4C[C@@H](F)[C@@H](n5cc6cc(N7CCC(=O)NC7=O)c(F)cc6n5)C4)CC3)cc2cc1NC(=O)c1cnn2cccnc12 [TM-239] | 7.98 | 8.14 |
|  | CN(C)c1cc2nn([C@H]3CC[C@H](CN4CC[C@H](n5cc6c(F)cc(N7CCC(=O)NC7=O)cc6n5)C4)CC3)cc2cc1NC(=O)c1cnn2cccnc12 [TM-216] | 7.87 |  |
|  | CN(C)c1cc2nn([C@H]3CC[C@H](CN4C[C@@H](F)[C@@H](n5cc6c(F)cc(N7CCC(=O)NC7=O)cc6n5)C4)CC3)cc2cc1NC(=O)c1cnn2cccnc12 [TM-219] | 7.83 |  |
| 1.42 nM | CN(C)c1cc2nc([C@H]3CC[C@H](CN4C[C@@H](n5cc6cc(N7CCC(=O)NC7=O)ccc6n5)[C@@H](F)C4)CC3)cn2cc1NC(=O)c1cnn2cccnc12 [TM-230] | 8.16 |  |
|  | CN(C)c1cc2nn([C@@H]3CC[C@@H](CN4CC[C@H](n5cc6c(F)cc(N7CCC(=O)NC7=O)cc6n5)C4)OC3)cc2cc1NC(=O)c1cnn2cccnc12 [TM-224] | 7.81 |  |
|  | CN(C)c1cc2nn([C@H]3CC[C@H](CN4C[C@H](F)[C@@H](n5cc6cc(C7CCC(=O)NC7=O)ccc6n5)C4)CC3)cc2cc1NC(=O)c1cnn2cccnc12 (some centres unmarked) [TM-243] | 8.12 | 8.40 |
| 0.86 nM | CN(C)c1cc2nn([C@H]3CC[C@H](CN4CC[C@@H](n5cc6ccc(N7CCC(=O)NC7=O)cc6n5)C4)CC3)cc2cc1NC(=O)c1cnn2cccnc12 [TM-198] | 7.68 |  |
|  | CN(C)c1cc2nn([C@H]3CC[C@H](CN4C[C@@H](n5cc6cc(N7CCC(=O)NC7=O)c(F)cc6n5)[C@@H](F)C4)CC3)cc2cc1NC(=O)c1cnn2cccnc12 [TM-232] | 7.72 |  |
|  | CN(C)c1nc2nc([C@H]3CC[C@H](CN4C[C@@H](n5cc6cc(N7CCC(=O)NC7=O)ccc6n5)[C@@H](F)C4)CC3)cn2cc1NC(=O)c1cnn2cccnc12 [TM-236] | 7.65 |  |
| 1.17 nM | CN(C)c1cc2nn([C@H]3CC[C@H](CN4CC[C@@H](n5cc6cc(C7CCC(=O)NC7=O)ccc6n5)[C@H](F)C4)CC3)cc2cc1NC(=O)c1cnn2cccnc12 (some centres unmarked) [TM-167] | 8.37 |  |
| < 1 nM | CN(C)c1cc2nc([C@H]3CC[C@H](CN4CCC(n5cc6c(F)cc(N7CCC(=O)NC7=O)cc6n5)CC4)CC3)cn2cc1NC(=O)c1cnn2cccnc12 [TM-231] | 7.94 |  |
|  | Cn1c(=O)n(C2CCC(=O)NC2=O)c2cccc(C#CCOC3CCN(C[C@H]4CC[C@H](n5cc(NC(=O)c6cnn7ccc(N8C[C@H]9C[C@@H]8CO9)nc67)c(C(F)F)n5)CC4)CC3)c21 (some centres unmarked) [Positive compound, reference compound] | 7.92 | 8.52 |
|  | CN(C)c1cc2nn([C@H]3CC[C@H](CN4CC[C@@H](n5cc6c(F)cc(N7CCC(=O)NC7=O)cc6n5)C4)CC3)cc2cc1NC(=O)c1cnn2cccnc12 [TM-217] | 8.07 |  |
|  | CN(C)c1cc2nn([C@H]3CC[C@H](CN4CC[C@H](c5nc6cc(N7CCC(=O)NC7=O)ccc6o5)C4)CC3)cc2cc1NC(=O)c1cnn2cccnc12 [TM-227] | 7.86 |  |

| DC50 [2] | Compound | pIC50 [1] | pIC50 [3] |
| --- | --- | --- | --- |
| 0.87 nM | CN(C)c1cc2nn([C@H]3CC[C@H](CN4C[C@@H](n5cc6ccc(N7CCC(=O)NC7=O)cc6n5)[C@@H](F)C4)CC3)cc2cc1NC(=O)c1cnn2cccnc12 [TM-199] | 7.59 |  |
|  | CN(C)c1cc2nn([C@H]3CC[C@H](CN4CC[C@@H](n5cc6c(F)cc(C7CCC(=O)NC7=O)cc6n5)C4)CC3)cc2cc1NC(=O)c1cnn2cccnc12 (some centres unmarked) [TM-235] | 8.22 |  |
|  | CN(C)c1cc2nn([C@H]3CC[C@H](CN4C[C@@H](n5cc6c(F)cc(N7CCC(=O)NC7=O)cc6n5)[C@@H](F)C4)CC3)cc2cc1NC(=O)c1cnn2cccnc12 [TM-218] | 7.81 |  |
|  | CN(C)c1cc2nn([C@H]3CC[C@H](CN4CCC(c5nc6cc(C7CCC(=O)NC7=O)cc(F)c6o5)CC4)CC3)cc2cc1NC(=O)c1cnn2cccnc12 (some centres unmarked) [TM-238] | 8.38 |  |
| 3.23 nM | CN(C)c1cc2nn([C@H]3CC[C@H](CN4CCC[C@@H](n5cc6cc(N7CCC(=O)NC7=O)ccc6n5)C4)CC3)cc2cc1NC(=O)c1cnn2cccnc12 [TM-211] | 8.76 |  |
|  | CN(C)c1cc2nn([C@H]3CC[C@H](CN4C[C@H](F)[C@@H](n5cc6cc(F)c(N7CCC(=O)NC7=O)cc6n5)C4)CC3)cc2cc1NC(=O)c1cnn2cccnc12 [TM-223] | 7.97 |  |
|  | CN(C)c1cc2nn([C@H]3CC[C@H](CN4C[C@H](F)[C@@H](n5cc6cc(N7CCC(=O)NC7=O)ccc6n5)C4)CC3)cc2cc1NC(=O)c1cnn2cccnc12 [TM-207] | 7.99 | 7.39 |
|  | CN(C)c1cc2nc([C@H]3CC[C@H](CN4CCC(n5cc6c(F)cc(N7CCC(=O)NC7=O)cc6n5)CC4)CC3)cn2nc1NC(=O)c1cnn2cccnc12 [TM-228] | 7.83 |  |
|  | CN(C)c1cc2nn([C@@H]3CC[C@@H](CN4CC[C@@H](n5cc6c(F)cc(N7CCC(=O)NC7=O)cc6n5)C4)OC3)cc2cc1NC(=O)c1cnn2cccnc12 [TM-225] | 7.91 |  |
|  | CN(C)c1cc2nn([C@H]3CC[C@H](CN4CC[C@@H](c5nc6cc(N7CCC(=O)NC7=O)ccc6o5)C4)CC3)cc2cc1NC(=O)c1cnn2cccnc12 [TM-226] | 8.37 |  |
|  | CN(C)c1cc2nc([C@H]3CC[C@H](CN4C[C@@H](n5cc6cc(N7CCC(=O)NC7=O)ccc6n5)[C@@H](F)C4)CC3)cn2nc1NC(=O)c1cnn2cccnc12 [TM-229] | 7.71 |  |
|  | O=C1CCC(c2ccc3cn([C@@H]4CCN(C[C@H]5CC[C@H](n6cc7cc(NC(=O)c8cnn9cccnc89)c(F)cc7n6)CC5)C4)nc3c2)C(=O)N1 (some centres unmarked) [TM-222] | 7.85 |  |
| 3.29 nM | CN(C)c1cc2nn([C@H]3CC[C@H](CN4CC[C@H](n5cc6ccc(N7CCC(=O)NC7=O)cc6n5)C4)CC3)cc2cc1NC(=O)c1cnn2cccnc12 [TM-197] | 8.31 |  |
|  | CN(C)c1cc2nn([C@H]3CC[C@H](CN4C[C@@H](n5cc6cc(C7CCC(=O)NC7=O)ccc6n5)[C@@H](F)C4)CC3)cc2cc1NC(=O)c1cnn2cccnc12 (some centres unmarked) [TM-234] | 7.84 | 8.09 |
| 3.22 nM | CN(C)c1cc2nn([C@H]3CC[C@H](CN4CCC(c5nc6cc(N7CCC(=O)NC7=O)ccc6o5)CC4)CC3)cc2cc1NC(=O)c1cnn2cccnc12 [TM-185] | 8.05 |  |
| 2.84 nM | CN(C)c1cc2nn([C@H]3CC[C@H](CN4CCC(n5cc6cc(NC7CCC(=O)NC7=O)ccc6n5)CC4)CC3)cc2cc1NC(=O)c1cnn2cccnc12 (some centres unmarked) [TM-196] | 8.53 |  |
